Laboratory results reported in the NIST ThermoML archive (doi:10.1016/j.jct.2015.08.010).
± gives the expanded uncertainty stated by the source.

Assay: xn = mol fraction of the nth substance listed
Settings: 100 kPa, Liquid; for viscosity: Falling or rolling sphere viscometry; for mass density: Vibrating tube method

C1CCC2=NCCC[NH+]2CC1.c1c[n-]cn1 [1,8-diazabicyclo[5.4.0]undec-7-enium imidazolide] + O
Settings | mass density, 293.15 K [kg/m3] | mass density, 298.15 K [kg/m3] | mass density, 303.15 K [kg/m3] | mass density, 308.15 K [kg/m3] | mass density, 313.15 K [kg/m3] | viscosity, 293.15 K [mPa·s] | viscosity, 298.15 K [mPa·s] | viscosity, 303.15 K [mPa·s] | viscosity, 308.15 K [mPa·s] | viscosity, 313.15 K [mPa·s]
x1 = 0.0298 | 1026.99 ± 4.2 | 1024.52 ± 4.2 | 1021.91 ± 4.1 | 1019.17 ± 4.1 | 1016.33 ± 4.1 | 2.845 ± 0.12 | 2.428 ± 0.1 | 2.096 ± 0.086 | 1.835 ± 0.072 | 1.614 ± 0.06
x1 = 0.0698 | 1048.57 ± 4.2 | 1045.19 ± 4.2 | 1041.75 ± 4.2 | 1038.24 ± 4.2 | 1034.66 ± 4.2 | 8.167 ± 0.24 | 6.74 ± 0.19 | 5.761 ± 0.16 | 4.854 ± 0.13 | 4.071 ± 0.11
x1 = 0.0998 | 1057.33 ± 4.2 | 1053.65 ± 4.2 | 1050.01 ± 4.2 | 1046.13 ± 4.2 | 1042.33 ± 4.2 | 14.13 ± 0.38 | 11.17 ± 0.29 | 9.019 ± 0.23 | 7.406 ± 0.18 | 6.217 ± 0.15
x1 = 0.1875 | 1067.15 ± 4.3 | 1063.22 ± 4.3 | 1059.26 ± 4.2 | 1055.28 ± 4.2 | 1051.28 ± 4.2 | 34.98 ± 0.8 | 25.84 ± 0.59 | 19.66 ± 0.45 | 15.37 ± 0.35 | 12.31 ± 0.28
x1 = 0.2994 | 1067.1 ± 4.3 | 1063.15 ± 4.3 | 1059.2 ± 4.2 | 1055.23 ± 4.2 | 1051.26 ± 4.2 | 60.57 ± 1.3 | 42.65 ± 0.97 | 30.99 ± 0.7 | 23.32 ± 0.52 | 18.12 ± 0.41
x1 = 0.444 | 1063.55 ± 4.3 | 1059.63 ± 4.2 | 1055.71 ± 4.2 | 1051.79 ± 4.2 | 1047.79 ± 4.2 | 72.41 ± 1.7 | 51.28 ± 1.1 | 37.8 ± 0.85 | 28.37 ± 0.64 | 21.76 ± 0.5
x1 = 0.5989 | 1059.62 ± 4.3 | 1055.73 ± 4.2 | 1051.85 ± 4.2 | 1047.97 ± 4.2 | 1044.1 ± 4.2 | 69.49 ± 1.7 | 49.75 ± 1.2 | 36.33 ± 0.84 | 27.13 ± 0.62 | 20.87 ± 0.48
x1 = 0.7516 | 1056.72 ± 4.3 | 1052.85 ± 4.2 | 1048.97 ± 4.2 | 1045.08 ± 4.2 | 1041.21 ± 4.2 | 63.94 ± 1.5 | 44.98 ± 1.1 | 32.9 ± 0.77 | 24.83 ± 0.58 | 19.33 ± 0.45
x1 = 0.8728 | 1055.11 ± 4.3 | 1051.25 ± 4.3 | 1047.41 ± 4.2 | 1043.56 ± 4.2 | 1039.73 ± 4.2 | 55.45 ± 1.3 | 39.57 ± 0.95 | 29.31 ± 0.69 | 22.6 ± 0.53 | 17.88 ± 0.42
x1 = 1 | 1053.63 ± 4.3 | 1049.78 ± 4.3 | 1045.94 ± 4.3 | 1042.11 ± 4.2 | 1038.28 ± 4.2 | 47.82 ± 1.2 | 34.94 ± 0.85 | 26.36 ± 0.64 | 20.5 ± 0.49 | 16.28 ± 0.39
